# US10517919B2, “Selective Nox-1 inhibitor peptides and uses thereof” (UNIVERSITE DE BORDEAUX, priority 2013, dated 2019)
# Key:
# [1] = system: NADPH oxidase; assay: NADPH oxidase activity in keratinocytes treated with peptide A variants; format: cell-based; settings: 10 μM, 24 h post-treatment, normalized to scramble treated cells
# Procedure: Keratinocytes were treated with 10 μM of the indicated peptides: scramble control peptide P1 (SEQ ID NO: 57), peptide A with tat sequence (SEQ ID NO: 41) or without the tat sequence (SEQ ID NO:20); shorter peptides P7 (SEQ ID NO: 2) and P8 (SEQ ID NO: 56) (FIG. 8A). The NADPH oxidase activity was measured 24 h post-treatment (RLU/μg of proteins) and was normalized to the scramble treated cells (FIG. 8B).
# [2] = system: XPC deficient mice; assay: Premature skin aging in XPC deficient mice (progerin, OXPHOS, proteomics); format: in vivo
# Procedure: FIGS. 11A and 11B: show the effect of NOX1 inhibitor peptide A (InhNOX) on progerin expression in skin biopsies of young XPC^+/+ and XPC^−/− mice. One month old mice were treated topically with 3 mg/kg (6 mice per group) Nox1 inhibitor peptide A (InhNOX) or control peptide (vehicle) three times per week for three months. (A) Total protein extracts of skin biopsies were assessed for progerin by Western blot analysis. β-actin was used as a loading control. (B) The protein bands corresponding to progerin was quantified and normalized with β-actin. The average density±SD from six mice in each group is presented as the relative value to the density in young wild type mice.
# FIGS. 12A and 12B: show the effects of Nox1 inhibitor peptide A (InhNOX) on protein expression of OXPHOS complexes in skin biopsies of young XPC^+/+ and XPC^−/− mice. One month old mice were treated topically with 3 mg/kg (6 mice per group) Nox1 inhibitor peptide A (InhNOX) or control peptide (vehicle) three times per week for three months. (A) Expression of OXPHOS complexes were assessed by western blot analysis. β-actin was used as a loading control. (B) The bands corresponding to different OXPHOS complexes were quantified and normalized with β-actin. The average density±SD from six mice in each group is presented as the relative value to the density in young wild type mice.
# To assess the anti-aging effects of Nox1 inhibitor peptide A (SEQ ID NO: 41) the accelerated aging in XPC deficient mice was first evaluated. To this end, the expression of progerin, a truncated version of lamin A protein involved in progeria syndrome, has been evaluated in 4 months old (young) and 1.5 year old (old) proficient and deficient XPC mice (XPC^+/+ and XPC^−/−, respectively) (FIGS. 9A and 9B).
# To investigate the role of NADPH oxidase activity on premature aging in XPC deficient mice, one month old XPC^+/+ and XPC^−/− mice have been treated with NOX1 inhibitor peptide or vehicle three times per week for three months. The progerin expression (FIG. 11), OXPHOS protein expression (FIG. 12) and metabolism profile in murine epidermal cells have been then evaluated. […] To have a general idea on the effects of NOX1 peptide inhibitor on the XPC knockdown-induced metabolism alteration, proteomic approach has been used.
# [3] = system: UVB-induced squamous cell carcinomas (SCC); assay: UVB-induced squamous cell carcinoma induction (photocarcinogenesis); format: in vivo, SKH-1 hairless mice; settings: for tumors with a volume less than 5 mm^3: 3 mg/kg topical, week 29
# Procedure: FIGS. 6A, 6B and 6C: show the photoprotective effects of peptide A on UVB-induced squamous cell carcinomas (SCC) induction using SKH-1 hairless mice. Mice were treated topically with 3 mg/kg of peptide A or control peptide, and irradiated with UVB 10 min later three times per week. The number (6A) and the size (6B) of tumors were assessed once a week during 29 weeks (6C). The tumor volume distribution was evaluated at week 29. Clearly there is a considerable reduction in numbers and size of UVB-induced tumors in SKH-1 mice administrated topically with peptide A.
# To examine the photoprotective effects of peptide A, the effect of peptide A administration on UVB-induced squamous cell carcinomas (SCC) induction using SKH-1 hairless mice, a well-defined murine model for the study of photocarcinogenesis that develops skin tumors including benign papilloma and malignant SCC. The validity of this model is exemplified by the remarkable similarity between UVB-induced carcinogenesis in these mice and the UV carcinogenesis pathway in human skin. SKH-1 hairless mice have yield extremely valuable data on the dose, time-course and the action spectrum for skin tumorigenesis following chronic UV B irradiation. In this study, peptide A (3 mg/kg) was administrated three times per week and 10 minutes prior to each UV B exposure.
# [4] = system: human colon adenocarcinoma HT29 cell line; assay: ROS level in HT29 cells, in which Nox1 is the only active Nox; format: cell-based; settings: 24 h post-treatment
# Procedure: (§1) FIGS. 2A and 2B: show the relative ROS level as measured in primary human keratinocytes and HT29 (human colon adenocarcinoma cell line) treated with 10 or 50 μM of peptide inhibitor for 24 h using the CM-H2DCF-DA probes. Cells were treated with 10 μM of the peptides A (SEQ ID NO: 41), B (SEQ ID NO: 42), and C (SEQ ID NO: 43), and the ROS level was measured 24 h post-treatment. ROS level was normalized to non-treated cells (NTC) (*P<0.05).
# (§2) ROS level in primary human keratinocytes treated with 10 or 50 μM of peptides A, B, and C for 24 h were assayed using the CM-H2DCF-DA probes (FIG. 2A).
# [5] = system: primary human keratinocytes; assay: ROS level with CM-H2DCF-DA probes in keratinocytes; format: cell-based; settings: 10 or 50 μM, 24 h
# Procedure: as §1, §2
# [6] = target: T1, Nox1 (Homo sapiens, UniProt Q86UR1); assay: ROS level in shCtrl, shNox1 or shNox2-transduced keratinocytes; format: cell-based; settings: shNox1-transduced keratinocytes, 24 h post-treatment, compared to control peptide C
# T1 construct: endogenous in cells; host or cells: keratinocytes transduced with lentiviral shCtrl, shNox1 or shNox2
# T1 sequence (Q86UR1 1-476): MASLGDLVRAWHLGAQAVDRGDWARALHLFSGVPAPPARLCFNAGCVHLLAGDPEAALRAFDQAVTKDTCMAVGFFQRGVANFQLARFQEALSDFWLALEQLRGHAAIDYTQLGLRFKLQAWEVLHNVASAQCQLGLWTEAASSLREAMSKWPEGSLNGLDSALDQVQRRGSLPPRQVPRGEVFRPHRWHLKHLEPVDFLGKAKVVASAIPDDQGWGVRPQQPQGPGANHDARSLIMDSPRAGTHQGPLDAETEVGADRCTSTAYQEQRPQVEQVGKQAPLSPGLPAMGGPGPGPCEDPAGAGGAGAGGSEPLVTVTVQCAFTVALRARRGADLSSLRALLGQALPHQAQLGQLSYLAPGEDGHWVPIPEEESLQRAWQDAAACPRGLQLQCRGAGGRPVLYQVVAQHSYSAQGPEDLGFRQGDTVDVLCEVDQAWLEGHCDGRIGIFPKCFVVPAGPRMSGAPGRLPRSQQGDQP
# Procedure: (§3) FIGS. 3A, 3B and 3C: show inhibition of endogenous Nox1 and Nox2 protein expression using lentivirus-mediated expression of shRNA against Nox1 and Nox2. Keratinocytes were transduced with different shRNA (shNox1, shNox2 and the control shCtrl). Transduction efficacy was checked by western blotting analysis. […] Transduction efficacy was checked by western blotting analysis. Relative ROS level (3B) and Nox activity (3C) were measured 24 h post-treatment with Nox1 inhibitor peptide A compared to control peptide C. ROS level was normalized to counterpart peptide C-treated cells. NADPH oxidase activity was measured by relative luminescence unit (RLU) per μg of proteins. *P<0.05. […] In FIG. 3C NADPH oxidase activity was measured in shCtrl and shNox1-transduced cells treated with or without Nox1 inhibitor peptide A.
# (§4) To examine the specificity of these peptides, the expression of endogenous Nox1 and Nox2 protein was inhibited using lentivirus-mediated expression of shRNA against Nox1 and Nox2. […] Further, NADPH oxidase activity was measured in shCtrl and shNox1-transduced cells treated with or without peptide A (FIG. 3C).
# [7] = system: UVB-induced Nox activation; assay: UVB-induced Nox activation in skin of irradiated mice; format: in vivo, SKH-1 mice; settings: topical 3 and 12 mg/kg, 10 min prior to irradiation (UVB 150 mJ/cm^2)
# Procedure: (§5) FIGS. 5A and 5B: show effect of peptide A on Nox1 activity in mouse skin. SKH-1 mice were treated topically with different doses: 0.4, 3 and 12 mg/kg (3 mice per dose) of Nox1 inhibitor peptide A. Skin biopsies were harvested 2 h, 24 h, 48 h and 72 h post-treatment and the NADPH oxidase activity was measured (RLU/μg of proteins). Results was normalized to the non-treated (NT) mice and expressed as % of inhibition of Nox activity. (B) Mice were treated topically with 3 and 12 mg/kg of peptide A (2 mice per dose). 10 min after treatment, mice were exposed to UVB (150 mJ/cm^2). Skin biopsies were harvested 2 h, 24 h. At 46 h after first treatment, mice were treated again with the same concentration of peptide A and exposed to UVB 10 min later. Skin biopsies were then harvested at 2 h, 24 h (i.e. 48 and 72 h after first treatment, respectively). The NADPH oxidase activity was measured (RLU/μg of proteins) and was normalized to the non-treated (NT) and non-irradiated mice.
# (§6) To examine the effect of peptide A on Nox1 activity in mouse skin, SKH-1 mice were treated topically with different doses of peptide A (FIG. 5A). […] The effect of peptide A on UVB irradiated mice was then tested (FIG. 5B).
# [8] = system: NADPH oxidase; assay: NADPH oxidase activity in shCtrl and shNox1-transduced keratinocytes; format: cell-based, human; settings: peptide A-treated cells versus shNox1-transduced cells and shNox1-transduced cells treated with peptide A
# Procedure: as §3, §4
# [9] = target: T2, Nox1 activity in mouse skin (Mus musculus, UniProt Q8CJ00); assay: NADPH oxidase activity in mouse skin after topical treatment; format: in vivo, SKH-1 mice; settings: 3 and 12 mg/kg
# T2 construct: from tissue; host or cells: skin biopsies of SKH-1 mice
# T2 sequence (Q8CJ00 1-444): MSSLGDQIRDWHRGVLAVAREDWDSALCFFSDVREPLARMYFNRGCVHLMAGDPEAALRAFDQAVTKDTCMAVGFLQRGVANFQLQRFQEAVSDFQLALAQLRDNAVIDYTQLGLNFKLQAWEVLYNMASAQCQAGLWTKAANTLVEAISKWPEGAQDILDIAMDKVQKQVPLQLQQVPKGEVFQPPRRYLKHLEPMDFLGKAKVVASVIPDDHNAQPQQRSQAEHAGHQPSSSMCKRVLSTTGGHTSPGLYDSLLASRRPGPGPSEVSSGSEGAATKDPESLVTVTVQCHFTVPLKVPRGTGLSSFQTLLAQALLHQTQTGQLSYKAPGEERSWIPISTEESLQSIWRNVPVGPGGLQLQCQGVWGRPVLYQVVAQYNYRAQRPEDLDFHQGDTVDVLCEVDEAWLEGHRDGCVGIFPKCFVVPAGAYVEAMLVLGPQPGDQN
# Procedure: as §5, §6
# [10] = system: NADPH oxidase; assay: NADPH oxidase activity in non-tumor bearing skin and UVB-induced tumors after 29 weeks; format: in vivo, SKH-1 mice; settings: compared with vehicle treated mice, after 29 weeks of treatment
# Procedure: Mice were sacrificed after 29 weeks of treatment. Non-tumor bearing skin and tumors were harvested from irradiated mice treated with peptide A or the vehicle. NADPH oxidase activity was measured as RLU/μg of proteins in non-tumor bearing skin and UVB-induced tumors. Relative inhibition of Nox activity in non-tumor bearing skin and tumors was evaluated following arbitrary setting the Nox activity in non-tumor bearing skin and tumors taken from vehicle treated-mice to 100%. Results were then expressed as the average percentage of vehicle-treated mice.
# The activity of NADPH oxidase was reduced 70% in non-tumor bearing skin and 54% in tumors isolated from mice treated with peptide A compared with vehicle treated mice (FIG. 7).
# [11] = XPC^−/− mice, 3 mg/kg topical three times per week for three months
# [12] = 3 mg/kg topical three times per week, 10 minutes prior to each UVB exposure, 29 weeks
substance,measurement,setting,value
"P8: shorter peptide derived from peptide A, sequence not printed (PPTVPTRP; … PEPTIDIC FRAGMENT)",inhibition of NADPH oxidase activity,[1],efficiently inhibit
"PPTVPTR (HOMO SAPIENS) [P7, shorter peptide derived from peptide A]",XPC deficiency-induced premature aging,[2]; XPC deficient mice,blocked
same,"all experiments of Example 8 repeated, compared with peptide A",[2]; XPC deficient mice,the same results have been obtained
same,inhibition of NADPH oxidase activity,[1],efficiently inhibit
PPTVPTRPS (HOMO SAPIENS) [peptide A without tat],inhibition of NADPH oxidase activity,[1],as efficiently as peptide A
"tat-C-L-R-I-T-R-Q-S-R [peptide C, reference compound]",tumors with a volume less than 5 mm^3,[3],8%
"tat-I-Q-S-R-C-C-T-V-T (RKKRRQRRRIQSRCCTVT; FUSION PEPTIDE) [peptide B, target SH3-NoxA1]",ROS level,[4],significant reduction
same,ROS level,[5],significant decrease
"tat-P-P-T-V-P-T-R-P-S (RKKRRQRRRPPTVPTRPS; FUSION PEPTIDE) [peptide A, target SH3-NoxA1]",ROS level,[4],significant reduction
same,XPC deficiency-induced premature aging,[2]; XPC deficient mice,blocked
same,XPC deficiency-induced metabolic alteration (proteomic approach),"[2]; XPC deficient mice, three times per week for three months",eliminated the effects
same,"expression of OXPHOS complexes I, II and III",[2]; [11],abrogated the decrease
same,protein expression of progerin in skin,[2]; [11],blocked the increase
same,ROS level,[5],significant decrease
same,steady-state levels of ROS in shNox1-transduced cells,[6],no effect
same,UVB-induced Nox activation,[7],efficiently blocked
same,NADPH oxidase activity,[8],Equally decreased
same,decrease in tumor number,[3]; [12],2.3 times
same,decrease in tumor size,[3]; [12],2.9 times
same,tumors with a volume less than 5 mm^3,[3],57%
same,duration of efficient inhibition of Nox activity in skin,[9],up to 3 days
same,reduction of NADPH oxidase activity in non-tumor bearing skin,[10],70%
same,reduction of NADPH oxidase activity in tumors,[10],54%
